# Reference: article PMC12606464, “Investigating NFE2L1 activators for targeted protein aggregate clearance: a follow-up study” (RSC Medicinal Chemistry, 2025)
# Columns and labels:
# SKN-1A = test: rpt-3p::GFP reporter in C. elegans strain GR2183; type: in vivo, Caenorhabditis elegans
# Description: Firstly, we investigated whether RUN-89 triggers SKN-1A activation in C. elegans by using the GR2183 strain. By using this strain, the activation of SKN-1A is indicated by GFP expression, which is driven by the promoter of the proteasome subunit gene (rpt-3p::GFP).[80,81]
# Figure S9. RUN-89 activates the NFE2L1 orthologue gene SKN-1A in C. elegans.
# In the GR2183 strain, activation of the SKN-1A is reported by the expression of GFP under the control of the proteasome subunit gene promoter (rpt-3p::GFP). Animals were treated with 25 µM RUN-89 or DMSO (vehicle control) for 24 hours with subsequent microscopic analysis.
# Results of relative GFP fluorescence intensity per single animal are presented. Overall, 71 animals (n | DMSO = 20, RUN-89 = 21) from three independent experiments ( N) were analyzed.
# The two dashed horizontal lines indicate the interquartile range, and the thick horizontal line represents the median. A significant increase in fluorescence intensity after RUN-89 treatment was verified by a Kolmogorov-Smirnov test. ***p<0.001. […]
# Transgenic GR2183 worms carrying the reporter gene (rpt -3p::GFP) were exposed to RUN-89 for 24 hours and for AM140 (rmIs132 [unc-54p::Q35::YFP]) to aged 6 days under treatment to establish protein aggregation model. The worms were then anesthetized with […] sodium azide and placed on glass slides with 5% agar for fluorescence microscope observation. […]
# Q35-YFP foci = test: Q35-YFP aggregation in C. elegans strain AM140; type: in vivo, Caenorhabditis elegans
# Protocol: Furthermore, we explored the role of RUN-89 in preventing huntingtin protein aggregation in C. elegans. For this AM140 strain, stably expressing aggregation-prone 35-glutamine long repeats marked with yellow fluorescence protein (Q35-YFP) were used.[82,83] A six-day treatment with 50 μM RUN-89 or a vehicle control was conducted, followed by microscopy analysis. […] These findings highlight the substantial impact of RUN-89 on foci formation or persistence, further supporting its role in suppressing pathological clustering in protein aggregation diseases or reducing stress-response assemblies.
# Fig. 5 RUN-89 prevents protein aggregation and increases stress resistance in C. elegans. (A) The AM140 strain expressing aggregation-prone Q35-YFP was treated with 50 μM RUN-89 or the vehicle for 6 days, followed by microscopy analysis. Overall, 959 Q35-YFP foci (DMSO = 517; RUN-89 = 442) were identified in 102 animals (DMSO: N = 3 populations, n = 55 animals in total; RUN-89: N = 3 populations, n = 47 animals in total). The two dashed horizontal lines indicate the interquartile range, and the thick horizontal line represents the median. The Kolmogorov–Smirnov test verified a significant reduction of surface and integrated optical density of foci after RUN-89 treatment. (B) Representative images of two animals per treatment condition. Images were taken on the same day, using identical settings for the instruments used. (C) Protective effect of RUN-89 against juglone and paraquat-induced stress. A synchronized population of N2 wild-type worms was exposed to 50 μM RUN-89 for 24 hours to protect against acute oxidative stress triggered by 180 μM juglone and 200 mM paraquat. The mortality was monitored hourly over a 12 hour period. […] Results were analyzed using the Kaplan–Meier method and are presented as survival percentages with standard errors. […]
# Transgenic GR2183 worms carrying the reporter gene (rpt -3p::GFP) were exposed to RUN-89 for 24 hours and for AM140 (rmIs132 [unc-54p::Q35::YFP]) to aged 6 days under treatment to establish protein aggregation model. The worms were then anesthetized with […] sodium azide and placed on glass slides with 5% agar for fluorescence microscope observation. The expression of the rpt-3p::GFP reporter in worms was directly related to the intensity of green fluorescence. Images were captured using a Zeiss Axioskop 2 Plus fluorescence microscope and a Zeiss Axio Observer A1 microscope designed for epifluorescence. Image analysis was performed to assess variations in aggregation (both the count and volume of aggregates) and fluorescence signal intensity using ImageJ software (https://imagej.nih.gov/ij/). […]
# [1] = AM140, 50 μM, six-day treatment, versus DMSO
smiles,measurement,setting,value
COc1ccc(/C=C2\CC(NC(=O)C3CCCC3)C/C(=C\c3ccc(OC)c(OC)c3)C2=O)cc1OC (stereo not drawn) [RUN-89],Average relative fluorescence intensity per GR2183 animal,"SKN-1A; 25 μM, 24 h, 20 °C, young adults, versus vehicle",significantly higher
same,Median rpt-3p::GFP (SKN-1A reporter),"SKN-1A; GR2183, DMSO median = 100.00, Figure S9",114.62
same,Q35-YFP foci relative fluorescence density,Q35-YFP foci; [1],significant decrease
same,Q35-YFP foci surface area,Q35-YFP foci; [1],significant decrease
same,"Q35-YFP intensity, median","Q35-YFP foci; C. elegans, Fig. 5A, DMSO median 1.00",0.51 fold change to DMSO median
same,"Q35-YFP foci surface, median","Q35-YFP foci; C. elegans, Fig. 5A, DMSO median 20",17 voxels
